{"source": "ChEMBL document CHEMBL1149683", "about": "“Novel TOPP descriptors in 3D-QSAR analysis of apoptosis inducing 4-aryl-4H-chromenes: comparison versus other 2D- and 3D-descriptors” (2007)", "data": [{"tested_on": "HL-60", "test": "Induction of apoptosis in human HL60 […]", "format": "functional", "values": [{"smiles": "COc1ccc2c(c1)OC(N)=C(C#N)C2c1cc(Br)c(OC)c(OC)c1", "note": "(stereo not drawn)", "Log (1/C)": 7.77}, {"smiles": "COc1ccc2c(c1)OC(N)=C(C#N)C2c1cccc(Br)c1", "note": "(stereo not drawn)", "Log (1/C)": 7.28}, {"smiles": "COc1ccc2c(c1)OC(N)=C(C#N)C2c1cccc(Cl)c1", "note": "(stereo not drawn)", "Log (1/C)": 7.1}, {"smiles": "COc1cc(OC)cc(C2C(C#N)=C(N)Oc3cc(OC)ccc32)c1", "note": "(stereo not drawn)", "Log (1/C)": 7.82}, {"smiles": "COc1ccc2c(c1)OC(N)=C(C#N)C2c1cccc([N+](=O)[O-])c1", "note": "(stereo not drawn)", "Log (1/C)": 7.05}, {"smiles": "CCNc1ccc2c(c1)OC(N)=C(C#N)C2c1cc(OC)c2c(c1)OCO2", "note": "(stereo not drawn)", "Log (1/C)": 6.48}, {"smiles": "CCNc1cc2c(cc1C)C(c1cc(OC)c3c(c1)OCO3)C(C#N)=C(N)O2", "note": "(stereo not drawn)", "Log (1/C)": 5.96}, {"smiles": "COc1cc(C2C(C#N)=C(N)Oc3cc(Cl)ccc32)cc(Br)c1OC", "note": "(stereo not drawn)", "Log (1/C)": 6.8}, {"smiles": "CCOc1ccc2c(c1)OC(N)=C(C#N)C2c1cc(Br)c(OC)c(OC)c1", "note": "(stereo not drawn)", "Log (1/C)": 7.19}, {"smiles": "COc1cc(C2C(C#N)=C(N)Oc3cc(O)ccc32)cc(Br)c1OC", "note": "(stereo not drawn)", "Log (1/C)": 6.89}, {"smiles": "COc1cc(C2C(C#N)=C(N)Oc3c2ccc(N)c3C)cc2c1OCO2", "note": "(stereo not drawn)", "Log (1/C)": 6.51}, {"smiles": "N#CC1=C(N)Oc2c(ccc(N)c2N)C1c1cccc(Br)c1", "note": "(stereo not drawn)", "Log (1/C)": 6.82}, {"smiles": "COc1cc(C2C(C#N)=C(N)Oc3c2ccc(O)c3O)cc(Br)c1OC", "note": "(stereo not drawn)", "Log (1/C)": 5.77}, {"smiles": "COc1ccc2c(c1)OC(N)=C(C#N)C2c1ccccc1", "note": "(stereo not drawn)", "Log (1/C)": 6.44}, {"smiles": "COc1ccc2c(c1)OC(N)=C(C#N)C2c1cc(OC)c(OC)c(OC)c1", "note": "(stereo not drawn)", "Log (1/C)": 7.59}, {"smiles": "COc1ccc2c(c1)OC(N)=C(C#N)C2c1cc(OC)c2c(c1)OCO2", "note": "(stereo not drawn)", "Log (1/C)": 6.8}, {"smiles": "COc1ccc2c(c1)OC(N)=C(C#N)C2c1cccnc1", "note": "(stereo not drawn)", "Log (1/C)": 6.77}, {"smiles": "N#CC1=C(N)Oc2c(ccc(N)c2N)C1c1cccc(C#N)c1", "note": "(stereo not drawn)", "Log (1/C)": 6.41}, {"smiles": "COc1cc(C2C(C#N)=C(N)Oc3cc4c(cc32)OCO4)cc2c1OCO2", "note": "(stereo not drawn)", "Log (1/C)": 6.68}, {"smiles": "COc1cc(C2C(C#N)=C(N)Oc3c2ccc(C)c3C)cc(Br)c1OC", "note": "(stereo not drawn)", "Log (1/C)": 7.38}, {"smiles": "COc1cc(C2C(C#N)=C(N)Oc3c2ccc(N)c3N)cc(Br)c1O", "note": "(stereo not drawn)", "Log (1/C)": 7.64}, {"smiles": "COc1cc(C2C(C#N)=C(N)Oc3c2ccc(N)c3N)cc(I)c1OC", "note": "(stereo not drawn)", "Log (1/C)": 5.31}, {"smiles": "COc1cc(C2C(C#N)=C(N)Oc3c2ccc(N)c3N)cc(Cl)c1OC", "note": "(stereo not drawn)", "Log (1/C)": 7.62}, {"smiles": "COc1cccc(C2C(C#N)=C(N)Oc3cc(N(C)C)ccc32)c1OC", "note": "(stereo not drawn)", "Log (1/C)": 5.99}, {"smiles": "CN(C)c1ccc2c(c1)OC(N)=C(C#N)C2c1cccc(Br)c1", "note": "(stereo not drawn)", "Log (1/C)": 7.19}, {"smiles": "CN(C)c1ccc2c(c1)OC(N)=C(C#N)C2c1cccc(Cl)c1", "note": "(stereo not drawn)", "Log (1/C)": 6.95}, {"smiles": "CN(C)c1ccc2c(c1)OC(N)=C(C#N)C2c1cccs1", "note": "(stereo not drawn)", "Log (1/C)": 6.7}, {"smiles": "CN(C)c1ccc2c(c1)OC(N)=C(C#N)C2c1cccnc1", "note": "(stereo not drawn)", "Log (1/C)": 7.17}, {"smiles": "COc1cc(C2C(C#N)=C(N)Oc3cc(N(C)C)ccc32)cc(Cl)c1OC", "note": "(stereo not drawn)", "Log (1/C)": 7.74}, {"smiles": "COc1ccc(C2C(C#N)=C(N)Oc3cc(N(C)C)ccc32)c(OC)c1OC", "note": "(stereo not drawn)", "Log (1/C)": 5.5}, {"smiles": "CN(C)c1ccc2c(c1)OC(N)=C(C#N)C2c1cccc(F)c1", "note": "(stereo not drawn)", "Log (1/C)": 7.09}, {"smiles": "COc1cc(C2C(C#N)=C(N)Oc3cc(N(C)C)ccc32)cc(I)c1OC", "note": "(stereo not drawn)", "Log (1/C)": 7.74}, {"smiles": "CN(C)c1ccc2c(c1)OC(N)=C(C#N)C2c1ccccn1", "note": "(stereo not drawn)", "Log (1/C)": 6.33}, {"smiles": "COc1cc(OC)c(C2C(C#N)=C(N)Oc3cc(N(C)C)ccc32)cc1OC", "note": "(stereo not drawn)", "Log (1/C)": 5.75}, {"smiles": "Cc1cncc(C2C(C#N)=C(N)Oc3cc(N(C)C)ccc32)c1", "note": "(stereo not drawn)", "Log (1/C)": 7.96}, {"smiles": "Cc1cccc(C2C(C#N)=C(N)Oc3cc(N(C)C)ccc32)n1", "note": "(stereo not drawn)", "Log (1/C)": 6.61}, {"smiles": "CN(C)c1ccc2c(c1)OC(N)=C(C#N)C2c1cccc(OC(F)(F)F)c1", "note": "(stereo not drawn)", "Log (1/C)": 6.35}, {"smiles": "COc1ccc(C2C(C#N)=C(N)Oc3cc(N(C)C)ccc32)cc1", "note": "(stereo not drawn)", "Log (1/C)": 5.8}, {"smiles": "Cc1cccc(C2C(C#N)=C(N)Oc3cc(N(C)C)ccc32)c1", "note": "(stereo not drawn)", "Log (1/C)": 6.87}, {"smiles": "CN(C)c1ccc2c(c1)OC(N)=C(C#N)C2c1cc(Br)c2c(c1)OCO2", "note": "(stereo not drawn)", "Log (1/C)": 6.61}, {"smiles": "CN(C)c1ccc2c(c1)OC(N)=C(C#N)C2c1cc(Cl)cc(Cl)c1", "note": "(stereo not drawn)", "Log (1/C)": 7.12}, {"smiles": "COc1ccc(C2C(C#N)=C(N)Oc3cc(N(C)C)ccc32)cc1OC", "note": "(stereo not drawn)", "Log (1/C)": 6.6}, {"smiles": "CCNc1ccc2c(c1)OC(N)=C(C#N)C2c1cccc(Cl)c1", "note": "(stereo not drawn)", "Log (1/C)": 6.92}, {"smiles": "CCNc1ccc2c(c1)OC(N)=C(C#N)C2c1cc(OC)c(OC)c(OC)c1", "note": "(stereo not drawn)", "Log (1/C)": 7.31}, {"smiles": "CCNc1ccc2c(c1)OC(N)=C(C#N)C2c1cccc(OC)c1", "note": "(stereo not drawn)", "Log (1/C)": 6.96}, {"smiles": "COc1ccc(CC2C(C#N)=C(N)Oc3cc(N(C)C)ccc32)c(Br)c1OC", "note": "(stereo not drawn)", "Log (1/C)": 5.14}, {"smiles": "CCN(CC)c1ccc2c(c1)OC(N)=C(C#N)C2c1cc(OC)c2c(c1)OCO2", "note": "(stereo not drawn)", "Log (1/C)": 6.32}, {"smiles": "COc1cc(C2C(C#N)=C(N)Oc3cc(O)ccc32)cc2c1OCO2", "note": "(stereo not drawn)", "Log (1/C)": 5.24}, {"smiles": "COc1cc(C2C(C#N)=C(N)Oc3cc(Br)ccc32)cc(Br)c1OC", "note": "(stereo not drawn)", "Log (1/C)": 6.85}, {"smiles": "COc1cc(C2C(C#N)=C(N)Oc3c2ccc(N)c3N)cc(Br)c1OC", "note": "(stereo not drawn)", "Log (1/C)": 7.47}, {"smiles": "COc1cc(OC)cc(C2C(C#N)=C(N)Oc3c2ccc(N)c3N)c1", "note": "(stereo not drawn)", "Log (1/C)": 7.04}, {"smiles": "CCNc1ccc2c(c1)OC(N)=C(C#N)C2c1cc(Br)c(OC)c(OC)c1", "note": "(stereo not drawn)", "Log (1/C)": 7.85}, {"smiles": "COc1cccc(C2C(C#N)=C(N)Oc3cc(OC)ccc32)c1", "note": "(stereo not drawn)", "Log (1/C)": 7.28}, {"smiles": "COc1cc(C2C(C#N)=C(N)Oc3cc(N(C)C)ccc32)cc2c1OCO2", "note": "(stereo not drawn)", "Log (1/C)": 7.14}, {"smiles": "COc1cc(C2C(C#N)=C(N)Oc3cc(N)ccc32)cc2c1OCO2", "note": "(stereo not drawn)", "Log (1/C)": 5.92}, {"smiles": "CN(C)c1ccc2c(c1)OC(N)=C(C#N)C2c1cccc(O)c1", "note": "(stereo not drawn)", "Log (1/C)": 6.57}, {"smiles": "CN(C)c1ccc2c(c1)OC(N)=C(C#N)C2c1cc(Br)cs1", "note": "(stereo not drawn)", "Log (1/C)": 6.82}, {"smiles": "CN(C)c1ccc2c(c1)OC(N)=C(C#N)C2c1cccc(C#N)c1", "note": "(stereo not drawn)", "Log (1/C)": 7.2}, {"smiles": "CN(C)c1ccc2c(c1)OC(N)=C(C#N)C2CCc1ccccc1", "note": "(stereo not drawn)", "Log (1/C)": 6.37}, {"smiles": "CN(C)c1ccc2c(c1)OC(N)=C(C#N)C2c1cnc2ccccc2c1", "note": "(stereo not drawn)", "Log (1/C)": 5.74}, {"smiles": "N#CC1=C(N)Oc2c(ccc(N)c2N)C1c1cccc([N+](=O)[O-])c1", "note": "(stereo not drawn)", "Log (1/C)": 6.41}, {"smiles": "COc1cc(C2C(C#N)=C(N)Oc3c2ccc(O)c3N)cc(Br)c1OC", "note": "(stereo not drawn)", "Log (1/C)": 7.21}, {"smiles": "COc1cncc(C2C(C#N)=C(N)Oc3cc(OC)ccc32)c1", "note": "(stereo not drawn)", "Log (1/C)": 7.33}, {"smiles": "COc1cc(C2C(C#N)=C(N)Oc3cc(N)ccc32)cc(Br)c1OC", "note": "(stereo not drawn)", "Log (1/C)": 7.48}, {"smiles": "COc1cccc(C2C(C#N)=C(N)Oc3cc(N(C)C)ccc32)c1", "note": "(stereo not drawn)", "Log (1/C)": 7.19}, {"smiles": "COc1cc(C2C(C#N)=C(N)Oc3cc(N(C)C)ccc32)cc(Br)c1O", "note": "(stereo not drawn)", "Log (1/C)": 7.39}, {"smiles": "CCNc1ccc2c(c1)OC(N)=C(C#N)C2c1cccc([N+](=O)[O-])c1", "note": "(stereo not drawn)", "Log (1/C)": 6.96}, {"smiles": "CCNc1ccc2c(c1)OC(N)=C(C#N)C2c1cc(OC)cc(OC)c1", "note": "(stereo not drawn)", "Log (1/C)": 7.26}, {"smiles": "CN(C)c1ccc2c(c1)OC(N)=C(C#N)C2c1ccncc1", "note": "(stereo not drawn)", "Log (1/C)": 6.42}, {"smiles": "COc1cc(Br)cc(C2C(C#N)=C(N)Oc3cc(N(C)C)ccc32)c1", "note": "(stereo not drawn)", "Log (1/C)": 7.51}, {"smiles": "CN(C)c1ccc2c(c1)OC(N)=C(C#N)C2c1cncc(Br)c1", "note": "(stereo not drawn)", "Log (1/C)": 7.48}, {"smiles": "COc1cc(C2C(C#N)=C(N)Oc3c2ccc(N)c3C)cc(Br)c1OC", "note": "(stereo not drawn)", "Log (1/C)": 7.59}, {"smiles": "COc1ccccc1C1C(C#N)=C(N)Oc2cc(N(C)C)ccc21", "note": "(stereo not drawn)", "Log (1/C)": 6.55}]}]}
